These results are taken from publication PMC12959148, “Exploring T. cruzi IMPDH as a promising target through Chagas Box screening and AVN-944 inhibition” (Antimicrobial Agents and Chemotherapy, 2026).

For one experiment, the target named is T. cruzi IMPDH (Trypanosoma cruzi, UniProt Q4CUG6). Put plainly: biochemical. The method, then: (§1) Compounds were assayed at a single concentration of 10 μM. They were provided by GSK (GlaxoSmithKline) in a 384-well ready-to-use assay microplate containing 25 nL of each sample at 10 mM (100% DMSO). […] Velocities at steady state were calculated in the plate reader (CLARIOstar, BMG LabTech) as the maximum slope. […] After 15 min, resorufin fluorescence (Ex = 570 nm; Em = 590 nm) was measured in a plate reader (CLARIOstar, BMG LabTech). Data were normalized and plotted using GraphPad Prism 9.5.0.
Chain of T. cruzi IMPDH (Q4CUG6 entry or part of it): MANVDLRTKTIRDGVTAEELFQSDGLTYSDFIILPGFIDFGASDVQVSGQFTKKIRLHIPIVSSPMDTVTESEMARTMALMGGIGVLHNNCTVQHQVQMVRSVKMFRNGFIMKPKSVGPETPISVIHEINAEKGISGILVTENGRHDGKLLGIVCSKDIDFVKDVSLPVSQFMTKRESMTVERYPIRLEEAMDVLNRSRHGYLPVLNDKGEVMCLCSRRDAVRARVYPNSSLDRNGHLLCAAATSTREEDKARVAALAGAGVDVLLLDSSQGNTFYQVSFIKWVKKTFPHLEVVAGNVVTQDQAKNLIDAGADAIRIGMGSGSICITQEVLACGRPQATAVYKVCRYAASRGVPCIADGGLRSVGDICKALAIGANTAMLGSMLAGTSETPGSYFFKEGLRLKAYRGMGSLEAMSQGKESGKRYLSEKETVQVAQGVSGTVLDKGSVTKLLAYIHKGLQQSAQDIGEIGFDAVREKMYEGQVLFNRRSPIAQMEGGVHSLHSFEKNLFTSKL
The above-mentioned diaphorase-coupled assay was used. […] TcIMPDH activity was normalized, and the IC50 was calculated using GraphPad Prism 9.5.0.

For experiment [1], the system named is T. cruzi amastigotes in H9c2 cells. Put plainly: Image-based infection assay, intracellular amastigotes in H9c2 host cells. Format: cell-based. Particulars: Trypanosoma cruzi, read-out: EC50 against T. cruzi amastigotes in H9c2 cells. The method, then: To determine EC50 to kill intracellular amastigotes in H9c2 host cells, we used an image-based assay previously described in Alonso-Padilla et al. ([56]). Briefly, T. cruzi trypomastigotes (from LLC-MK2 supernatant) were used to infect H9c2 rat cardiomyocytes overnight. After washing, cells were incubated for 48 h in fresh DMEM, then seeded (1.5 × 10^3 cells/well) into 384-well plates with 50 µL assay volume (0.4% DMSO) containing 0.2 µL of compounds. After 72 h, cells were washed, fixed with 4% paraformaldehyde, and stained with Hoechst 33,342 (4 µg/mL). Images (five per well) were acquired using an Operetta microscope (20× objective) and analyzed with Columbus software. Data on cell count and infection ratio were processed in GraphPad Prism 9.5.0.

For the next experiment, the target named is human IMPDH isoenzymes. The following applies: cited from earlier work.
In another experiment the test system is T. cruzi. The arrangement: method as in PMID 12070425. Particulars: cited from earlier work.
For the next experiment, the system named is recombinant TcIMPDH. Put plainly: TcIMPDH Michaelis-Menten kinetics, NADH fluorescence direct assay. Format: biochemical, Trypanosoma cruzi. The following applies: 25°C, pH 7, other substrate at 1 mM, 1 μM enzyme. The method, then: Em = 485 nm) at 25°C, in black 384-wells microplates. Fluorescence was recorded every 30 s over 10 min using a CLARIOstar plate reader (BMG LabTech) and steady-state velocities were calculated from the maximum slope of the fluorescence curve. All reactions were performed in triplicate, under optimized buffer conditions: 50 mM tri-sodium citrate (pH 7), 100 mM KCl, and 1 mM DTT. For both substrates, 1 μM of purified recombinant […] was used.

Another experiment relates to human IMPDHs. The following applies: read-out: Km of human IMPDHs for substrate; cited from earlier work.
The subject of a further experiment is L. donovani IMPDH. Particulars: read-out: Km of L. donovani IMPDH for substrate; cited from earlier work.
In a further experiment the test system is T. brucei IMPDH. The arrangement: method as in PMID 23369253. Particulars: read-out: Km of T. brucei IMPDH for substrate; cited from earlier work.
In another experiment the target is TcIMPDH (Trypanosoma cruzi, UniProt Q4CUG6). Put plainly: Chagas Box single-concentration screening for TcIMPDH inhibitors. Format: biochemical. The method, then: as §1
Chain of TcIMPDH (Q4CUG6 entry or part of it): as above
The subject of a further experiment is CYP51. Further details: method as in PMID 25740547. The following applies: cited from earlier work.
The next experiment deals with T. cruzi amastigotes. The arrangement: method as in PMID 25740547. The following applies: calculated from reported pEC50 value; read-out: EC50 anti-amastigote activity, previously reported; cited from earlier work.
Where [2] appears, read: H9c2, 72 h, image-based, at least two biological replicates.
[3] abbreviates: read-out: IC50 against T. cruzi IMPDH.

Several values for one entry are separate records, joined by “and”; a condition that tells them apart may be missing. Equal values may be shown once. Entries after “also recorded” stand apart in the source; their conditions may differ. Read-outs that look alike come from different tables or passages of the source.

As a reminder, the IC50 is the concentration at which inhibition is half-maximal. A word on the EC50: it is the midpoint of the concentration-response curve. `COc1cc(NC(=O)Nc2cccc(CNC(=O)O[C@@H]3CCOC3)c2)ccc1-c1cnco1` [(R)-Merimepodib] showed an IC50 at T. cruzi IMPDH of 370 nM. Moreover, the EC50 in [1] (setting [2]) stood at 3000 nM.
Compound `COc1cc(NC(=O)Nc2cccc(CNC(=O)O[C@H]3CCOC3)c2)ccc1-c1cnco1` [(S)-Merimepodib] had an IC50 on T. cruzi IMPDH of 210 nM. Besides, the EC50 in [1] (setting [2]) is 4800 nM.
As usually defined, the Ki is a dissociation constant, usually derived from enzyme kinetics or from competition with a known ligand. In the case of `CC[C@H](CC#N)OC(=O)N[C@@H](C)c1cccc(NC(=O)Nc2ccc(-c3cnco3)c(OC)c2)c1` [AVN-944], at T. cruzi IMPDH, the IC50 was determined as 200 nM and the inhibition constant Ki is ~81 nM. At human IMPDH isoenzymes, the Ki was 6 to 10 nM. In experiment [1] (H9c2, 72 h), the EC50 was 400 nM.
`O=C(Cn1ccnc1[N+](=O)[O-])NCc1ccccc1` [Benznidazole]: in [1] (setting [2]), the EC50 was 3000 nM.
As for `NC(=O)c1ncn([C@@H]2O[C@H](CO)[C@@H](O)[C@H]2O)c1O` [Mizoribine], the “inhibition of TcIMPDH activity” value at T. cruzi IMPDH is “did not show measurable inhibition; also recorded: inactive”.
For `COc1c(C)c2c(c(O)c1C/C=C(\C)CCC(=O)OCCN1CCOCC1)C(=O)OC2` [Mycophenolate mofetil], in the experiment with T. cruzi, the “parasitemia in Chagas murine model” value is “reduction of parasitemia” and the “survival / parasitological cure in Chagas murine model” value is on record as “fails to improve survival outcomes or achieve parasitological cure”. Besides, the half-inhibitory concentration (IC50) at T. cruzi IMPDH (setting [3]) came to 4400 nM. The EC50 in experiment [1] (setting [2]) was 1500 nM.
Broadly, the Km is the substrate concentration at which the rate is half of its maximum. On to `NC(=O)c1ccc[n+]([C@@H]2O[C@H](COP(=O)([O-])OP(=O)(O)OC[C@H]3O[C@@H](n4cnc5c(N)ncnc54)[C@H](O)[C@@H]3O)[C@@H](O)[C@H]2O)c1` [NAD^+, nicotinamide adenine dinucleotide oxidized form], for which the Km with recombinant TcIMPDH is 292 µM; in the experiment with human IMPDHs it was 6 to 70 µM; with L. donovani IMPDH, 390 µM; in the experiment on T. brucei IMPDH it was 1300 µM.
For orientation: inhibition means the share of the control response that was lost under treatment. In the case of `COc1cc(NC(=O)Nc2cccc(CNC(=O)OC3CCCCC3)c2)ccc1-c1cnco1` [TCMDC-143376], the inhibition at 10 µM at TcIMPDH (10 μM compound, two independent runs, read-out: inhibition of TcIMPDH in primary screening) is 55 to 60%. Further, the IC50 was < 10000 nM on TcIMPDH (estimated from inhibition at the fixed concentration 10 μM, read-out: IC50 suggested by screening); ~25000 nM with CYP51; 4000 nM on T. cruzi IMPDH (setting [3]). Besides, in the experiment on T. cruzi amastigotes, the EC50 was ~15900 nM and 15900 nM.
